Experimental findings from patent US12319684B2 (Sanford Burnham Prebys Medical Discovery Institute, priority 2014, dated 2025) are described below.

The term EC50 denotes the concentration giving half of the maximal effect.

The target of this experiment is T1, human apelin receptor (APJ, AGTRL-1, APLNR) (Homo sapiens, UniProt P35414).
T1 construct: host or cells: Chinese hamster ovary cells
T1 sequence (P35414 1-380): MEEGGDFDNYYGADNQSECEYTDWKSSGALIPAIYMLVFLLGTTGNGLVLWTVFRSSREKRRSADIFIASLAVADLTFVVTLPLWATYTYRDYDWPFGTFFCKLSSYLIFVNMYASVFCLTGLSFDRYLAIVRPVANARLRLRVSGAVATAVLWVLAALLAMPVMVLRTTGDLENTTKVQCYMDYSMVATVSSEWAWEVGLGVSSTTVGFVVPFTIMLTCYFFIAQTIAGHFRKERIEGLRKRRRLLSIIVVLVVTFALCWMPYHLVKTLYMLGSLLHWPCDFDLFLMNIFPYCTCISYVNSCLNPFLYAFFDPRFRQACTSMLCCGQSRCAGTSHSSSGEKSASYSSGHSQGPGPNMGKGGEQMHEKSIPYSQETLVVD
The experiment in a line: APJ cAMP cell-based assay (forskolin-stimulated CHO cells, enzyme fragment complementation). As to conditions: for EC50: CHO cells expressing human APJ, forskolin-stimulated, 0.5 h incubation, 50% of control (apelin-13, 1 nM) response, read-out: APJ cAMP EC50; for Emax: CHO, 0.5 h, read-out: APJ cAMP % resp (efficacy). As to the method: The assays disclosed herein were performed using cell lines from DiscoveRx, Inc.
Biological activity was determined in a cell-based assay. This assay detects activation of the receptor by reporting on intracellular cyclic adenosine monophosphate (cAMP) level. Chinese hamster ovary cells engineered to express a stably integrated human apelin receptor (APJ, AGTRL-1, APLNR), were plated into the wells of a microtiter plate. Cells were stimulated with forskolin to increase intracellular cAMP. Immediately following, compounds were added at a range of final concentrations 0.0-100 μM, in DMSO (not to exceed a final DMSO concentration of >1% v/v), and allowed to incubate with the cells for 0.5 h. At the end of the incubation, cells were lysed to stop APJ signaling, and cAMP was quantified using a commercially available assay kit that applies enzyme fragment complementation technology and bioluminescence, in a competitive ELISA format.
Compound efficacy (% resp) is reported as a percentage of the maximal apelin-13 response at 1 nM (control).

Setting [1] is: percentage of the maximal apelin-13 response at 1 nM (control).

Like-named read-outs stand apart in the source and are kept apart here.

For the molecule `COc1ccccc1-n1c(SCc2cc(=O)n3cc(C)ccc3n2)nnc1-c1ccco1` [Example 2, 2-[5-Furan-2-yl-4-(2-methoxy-phenyl)-4H-[1,2,4]triazol-3-ylsulfanylmethyl]-7-methyl-pyrido[1,2-a]pyrimidin-4-one], the EC50 amounted to 310 nM. For the same molecule, under setting [1], the Emax came out at 154%.

For the molecule `COc1ccccc1-n1c(SCc2cc(=O)n3cc(C)ccc3n2)nnc1-c1ccccc1` [Example 3, 2-[4-(2-Methoxy-phenyl)-5-phenyl-4H-[1,2,4]triazol-3-ylsulfanylmethyl]-7-methyl-pyrido[1,2-a]pyrimidin-4-one], the EC50 was determined as 6160 nM. The Emax under setting [1] amounted to 136%. Take `COc1ccccc1-n1c(SCc2cc(=O)n3cc(C)ccc3n2)nnc1-c1ccncc1` [Example 4, 2-[4-(2-Methoxy-phenyl)-5-pyridin-4-yl-4H-[1,2,4]triazol-3-ylsulfanylmethyl]-7-methyl-pyrido[1,2-a]pyrimidin-4-one]: the EC50 was determined as 3090 nM. Besides, under setting [1], the Emax worked out at 80%. As for `COc1ccccc1-n1c(SCc2cc(=O)n3cc(C)ccc3n2)nnc1-c1ccc(C)cc1` [Example 5, 2-[4-(2-Methoxy-phenyl)-5-p-tolyl-4H-[1,2,4]triazol-3-ylsulfanylmethyl]-7-methyl-pyrido[1,2-a]pyrimidin-4-one], the EC50 was determined as 1510 nM. In addition, the Emax under setting [1] turned out to be 126%. With `COc1ccccc1-n1c(SCc2cc(=O)n3cc(C)ccc3n2)nnc1-c1ccc(N(C)C)cc1` [Example 6, 2-[5-(4-Dimethylamino-phenyl)-4-(2-methoxy-phenyl)-4H-[1,2,4]triazol-3-ylsulfanylmethyl]-7-methyl-pyrido[1,2-a]pyrimidin-4-one], the EC50 worked out at 13600 nM. Besides, the Emax under setting [1] is 176%. Taken in the same sequence, the figures for `COc1ccccc1-n1c(SCc2cc(=O)n3cc(C)ccc3n2)nnc1-c1ccc([N+](=O)[O-])cc1` [Example 7, 2-[4-(2-Methoxy-phenyl)-5-(4-nitro-phenyl)-4H-[1,2,4]triazol-3-ylsulfanylmethyl]-7-methyl-pyrido[1,2-a]pyrimidin-4-one] were 6630 nM and 51%. Taken in the same sequence, the figures for `COc1ccccc1-n1c(SCc2cc(=O)n3cc(C)ccc3n2)nnc1-c1ccc(Br)s1` [Example 8, 2-[5-(5-Bromo-thiophen-2-yl)-4-(2-methoxy-phenyl)-4H-[1,2,4]triazol-3-ylsulfanylmethyl]-7-methyl-pyrido[1,2-a]pyrimidin-4-one] were 551 nM and 137%. Taken in the same sequence, the figures for `COc1ccccc1-n1c(SCc2cc(=O)n3cc(C)ccc3n2)nnc1-c1ccc(Cl)s1` [Example 9, 2-[5-(5-Chloro-thiophen-2-yl)-4-(2-methoxy-phenyl)-4H-[1,2,4]triazol-3-ylsulfanylmethyl]-7-methyl-pyrido[1,2-a]pyrimidin-4-one] were 455 nM and 136%. Consider `COc1ccccc1-n1c(SCc2cc(=O)n3cc(C)ccc3n2)nnc1-c1ccc(Br)o1` [Example 10, 2-[5-(5-Bromo-furan-2-yl)-4-(2-methoxy-phenyl)-4H-[1,2,4]triazol-3-ylsulfanylmethyl]-7-methyl-pyrido[1,2-a]pyrimidin-4-one], for which the EC50 amounted to 18.2 nM. Under setting [1], the Emax worked out at 150%. Taken in the same sequence, the figures for `COc1ccccc1-n1c(SCc2cc(=O)n3cc(C)ccc3n2)nnc1-c1ccc(C)s1` [Example 11, 2-[4-(2-Methoxy-phenyl)-5-(5-methyl-thiophen-2-yl)-4H-[1,2,4]triazol-3-ylsulfanylmethyl]-7-methyl-pyrido[1,2-a]pyrimidin-4-one] were 70.4 nM and 118%. Taken in the same sequence, the figures for `COc1ccccc1-n1c(SCc2cc(=O)n3cc(C)ccc3n2)nnc1-c1sccc1C` [Example 12, 2-[4-(2-Methoxy-phenyl)-5-(3-methyl-thiophen-2-yl)-4H-[1,2,4]triazol-3-ylsulfanylmethyl]-7-methyl-pyrido[1,2-a]pyrimidin-4-one] were 1490 nM and 89%.

For the molecule `COc1ccccc1-n1c(SCc2cc(=O)n3cc(C)ccc3n2)nnc1-c1ccc(C#N)cc1` [Example 13, 4-[4-(2-Methoxy-phenyl)-5-(7-methyl-4-oxo-4H-pyrido[1,2-a]pyrimidin-2-ylmethylsulfanyl)-4H-[1,2,4]triazol-3-yl]-benzonitrile], the EC50 is 1420 nM. Moreover, under setting [1], the Emax is 94%.

In the case of `COc1ccccc1-n1c(SCc2cc(=O)n3cc(C)ccc3n2)nnc1-c1nccs1` [Example 14, 2-[4-(2-Methoxy-phenyl)-5-thiazol-2-yl-4H-[1,2,4]triazol-3-ylsulfanylmethyl]-7-methyl-pyrido[1,2-a]pyrimidin-4-one], the EC50 was 772 nM. For the same molecule, the Emax under setting [1] turned out to be 105%.

Regarding `COc1ccccc1-n1c(SCc2cc(=O)n3cc(C)ccc3n2)nnc1-c1ccc(C)o1` [Example 15, 2-[4-(2-Methoxy-phenyl)-5-(5-methyl-furan-2-yl)-4H-[1,2,4]triazol-3-ylsulfanylmethyl]-7-methyl-pyrido[1,2-a]pyrimidin-4-one], the EC50 is 4.44 nM. The Emax under setting [1] turned out to be 52%. Taken in the same sequence, the figures for `COc1ccccc1-n1c(SCc2cc(=O)n3cc(C)ccc3n2)nnc1-c1ccoc1` [Example 16, 2-[5-Furan-3-yl-4-(2-methoxy-phenyl)-4H-[1,2,4]triazol-3-ylsulfanylmethyl]-7-methyl-pyrido[1,2-a]pyrimidin-4-one] were 96.8 nM and 84%. The matching figures for `COc1ccccc1-n1c(SCc2cc(=O)n3cc(C)ccc3n2)nnc1-c1ccsc1` [Example 17, 2-[4-(2-Methoxy-phenyl)-5-thiophen-3-yl-4H-[1,2,4]triazol-3-ylsulfanylmethyl]-7-methyl-pyrido[1,2-a]pyrimidin-4-one]: 90 nM and 109%. For the molecule `COc1ccccc1-n1c(SCc2cc(=O)n3cc(C)ccc3n2)nnc1-c1cccn1C` [Example 18, 2-[4-(2-Methoxy-phenyl)-5-(1-methyl-1H-pyrrol-2-yl)-4H-[1,2,4]triazol-3-ylsulfanylmethyl]-7-methyl-pyrido[1,2-a]pyrimidin-4-one], the half-maximal effective concentration (EC50) was found to be 1700 nM. Besides, the Emax under setting [1] amounted to 58%.

With `COc1ccccc1-n1c(SCc2cc(=O)n3cc(C)ccc3n2)nnc1-c1nccn1C` [Example 19, 2-[4-(2-Methoxy-phenyl)-5-(1-methyl-1H-imidazol-2-yl)-4H-[1,2,4]triazol-3-ylsulfanylmethyl]-7-methyl-pyrido[1,2-a]pyrimidin-4-one], the EC50 was over 10000 nM. Besides, under setting [1], the Emax stood at 57%. As for `COc1ccc(-n2c(SCc3cc(=O)n4cc(C)ccc4n3)nnc2-c2cccs2)cc1` [Example 20, 2-[4-(4-Methoxy-phenyl)-5-thiophen-2-yl-4H-[1,2,4]triazol-3-ylsulfanylmethyl]-7-methyl-pyrido[1,2-a]pyrimidin-4-one], the EC50 was 5000 nM and the Emax worked out at 10%. With `Cc1cccc(-n2c(SCc3cc(=O)n4cc(C)ccc4n3)nnc2-c2cccs2)c1` [Example 21, 7-Methyl-2-(5-thiophen-2-yl-4-m-tolyl-4H-[1,2,4]triazol-3-ylsulfanylmethyl)-pyrido[1,2-a]pyrimidin-4-one], the EC50 amounted to 2370 nM. The Emax under setting [1] came out at 113%. `COc1cccc(-n2c(SCc3cc(=O)n4cc(C)ccc4n3)nnc2-c2cccs2)c1` [Example 22, 2-[4-(3-Methoxy-phenyl)-5-thiophen-2-yl-4H-[1,2,4]triazol-3-ylsulfanylmethyl]-7-methyl-pyrido[1,2-a]pyrimidin-4-one]: the EC50 amounted to 1240 nM. Also, the Emax under setting [1] is 134%. Consider `Cc1ccc2nc(CSc3nnc(-c4cccs4)n3-c3ccccc3C)cc(=O)n2c1` [Example 23, 7-Methyl-2-(5-thiophen-2-yl-4-o-tolyl-4H-[1,2,4]triazol-3-ylsulfanylmethyl)-pyrido[1,2-a]pyrimidin-4-one], for which the EC50 was determined as 179 nM. In addition, the Emax under setting [1] amounted to 109%. With `Cc1ccc2nc(CSc3nnc(-c4cccs4)n3-c3ccccc3F)cc(=O)n2c1` [Example 24, 2-[4-(2-Fluoro-phenyl)-5-thiophen-2-yl-4H-[1,2,4]triazol-3-ylsulfanylmethyl]-7-methyl-pyrido[1,2-a]pyrimidin-4-one], the EC50 was over 10000 nM.

As to `Cc1ccc2nc(CSc3nnc(-c4cccs4)n3-c3ccc(OC(F)(F)F)cc3)cc(=O)n2c1` [Example 25, 7-Methyl-2-[5-thiophen-2-yl-4-(4-trifluoromethoxy-phenyl)-4H-[1,2,4]triazol-3-ylsulfanylmethyl]-pyrido[1,2-a]pyrimidin-4-one], the EC50 is over 10000 nM. For the same molecule, the Emax under setting [1] stood at 52%.
